{"source": "patent US20080003250A1", "about": "“NOVEL THERAPY FOR HERPESVIRUS INFECTION” (priority 2006, published 2008)", "key": {"[1]": {"target": "host eukaryotic DNA polymerase", "settings": "cited from earlier work"}, "[2]": {"settings": "cited from earlier work"}, "HSV-1": {"test_system": "HSV-1", "settings": "cited from earlier work"}, "[3]": {"test_system": "HSV-1 KOS infected Vero cells", "assay": "Efficacy of implants at preventing cytopathic effect in cell culture", "assay_type": "cell-based", "settings": "48 hours post-infection; 0.22 ug ACV or two implants per well", "protocol": "A six-well culture plate was prepared with 4 mL of Dulbecco's modified Eagles' medium (DMEM) (Invitrogen) supplemented with 10% fetal bovine serum and 1% penicillin-streptomycin-Amphotericin B solution (Mediatech) per well. […] The plate was incubated for two days at 37° C. and 5% CO2. Vero cells (ATCC CCL-81) were then added to each well and allowed to grow for another 48 hours until almost confluent. HSV-1 KOS (9.0×10^3 pfu) (ATCC VR-1493) was added to one of each of the paired wells, and 24 and 48 hours later the cells were photographed with a Nikon D1 2.6 megapixel digital camera, set in black and white mode, attached to an Olympus CK-40 microscope. The resulting digital images were compiled for presentation with Adobe Photoshop.\nAll mock-infected Vero cells remained healthy 48 hours after infection (FIGS. 8A-8C)."}}}
{"smiles": "Nc1nc2c(ncn2COCCOP(=O)(O)OP(=O)(O)OP(=O)(O)O)c(=O)[nH]1", "note": "[ACV-triphosphate, ACV triphosphate]", "values": [{"measurement": "Ki", "setting": "[1]", "result": "0.96 ± 0.08", "unit": "µM"}]}
{"smiles": "CC(C)[C@H](N)C(=O)OCCOCn1cnc2c(=O)[nH]c(N)nc21", "note": "[valacyclovir]", "values": [{"measurement": "bioavailability, of the oral dose consumed", "setting": "[2]", "result": "about 50%"}]}
{"smiles": "Nc1nc2c(ncn2COCCO)c(=O)[nH]1", "note": "[ACV, acyclovir]", "values": [{"measurement": "50% inhibitory dose against HSV-1", "setting": "HSV-1", "result": "about 0.03 ug/mL"}, {"measurement": "cytopathic effect (CPE) in HSV-1-infected Vero cells", "setting": "[3]", "result": "Moderate CPE (cell rounding)"}, {"measurement": "plaque formation in HSV-1-infected Vero cells", "setting": "[3]", "result": "no plaque formation"}]}
